Experimental findings from patent US8680100B2, “Sulfonylhydrazide compounds for treating proliferative disorders” (Synta Pharmaceuticals Corp., priority 2008, dated 2014) are described below.

In the test the test system is HSP70. Kind of test: Hsp70 Activity Essay (HSP70 ELISA on lysates of MDA435 cells). The following applies: concentration that increases HSP70 to 50% of maximum increase by N′1,N′3-dimethyl-N′1,N′3-di(phenylcarbonothioyl)malonohydrazide. Format: cell-based. Here is the method: Each well was plated with MDA435 cells using DMEM 10% FBS Phenol-red free medium 2.5 k/well and incubated in a 37° C./5% CO2 incubator for a minimum of 6 hours to obtain good cell adherence.
Dilutions of each test compound were prepared in DMSO and DMEM 10% FBS Phenol-red free medium. The final concentration in each well was 1250 nM, 125 nM, 12.5 nM or 1.25 nM of test compound and 0.25% DMSO. 0.25% DMSO was used as a negative control. Lysis buffer (any lysis buffer suitable for use in the Assay Designs kit, e.g., such as that described in the kit instructions) was then added (amount used is one quarter of the volume already present in each plate) and the mixtures were then shaken for 10 minutes.
150 μL of “Can Get Signal” Immunoreaction Enhancer Solution (Solution 1 for primary antibody, TOYOBO, Catalogue No. NKB-101) were added to each of a series of ELISA plates. The ELISA plates were obtained from the HSP70 ELISA Kit (catalogue number EKS-700B) purchased from Assay Designs (Ann Arbor, Mich.). After the cells were lysed, 50 μL of lysate were taken from each well and added to an ELISA plate, resulting in a 4 fold dilution of the lysate (50 μL of lysate and 150 μL of Can Get Signal solution). The plates were covered with adhesive tape and incubated overnight at 4° C.;
In the morning, the liquid was aspirated from all wells and 400 μL of Washing Buffer made from 20× concentrate provided in the ELISA Kit and distilled water were added and then removed by aspiration. The addition of Washing Buffer and aspiration was repeated four times. After the fourth wash, the plate were inverted to a paper towel and carefully patted dry. 100 μL of HSP70 antibody provided in ELISA Kit were added to each well. Each well was covered with adhesive tape and incubated for one hour at room temperature. Washing Buffer was then added followed by removal with aspiration. The addition of Washing Buffer and aspiration was repeated four times, after which the plates were inverted and patted dry. 100 μL of HSP70 conjugate (provided in the ELISA Kit) were added to the wells. Each well was then covered with adhesive tape and incubated for one hour at room temperature. Washing Buffer was then added followed by removal with aspiration. The addition of Washing Buffer and aspiration was repeated four times, after which the plates were inverted and patted dry.
100 μL of the TMB Substrate (obtained from the ELISA Kit) were added to the wells (color development was visible in 1 minute). The wells were incubated until saturated color development (usually 5-15 minutes). Stop Solution 2 (provided in the ELISA Kit) was added in the same order TMB Substrate was added. The OD450 was then obtained using a plate reader. The EC50 for the compounds was calculated using N′^1,N′^3-dimethyl-N′^1,N′^3-di(phenylcarbonothioyl)malonohydrazide on the same plate as a control (concentration that increases HSP70 to 50% of maximum increase by N′^1,N′^3-dimethyl-N′^1,N′^3-di(phenylcarbonothioyl)malonohydrazide). The EC50 for each of the compounds tested is shown in example 1.

Regarding `CN(NC(=O)CS(=O)(=O)NN(C)C(=S)c1cccc(F)c1)C(=S)c1cccc(F)c1` [Compound 1, N′-(3-fluorophenylcarbonothioyl)-2-(2-(3-fluorophenylcarbonothioyl)-2-methylhydrazinyl)-N′-methyl-2-oxoethanesulfonohydrazide], the 50% effective concentration (EC50) (in general, the concentration at which the effect is half-maximal) stood at 60 nM. The result for `CCN(NS(=O)(=O)CC(=O)NN(C)C(=S)c1ccccc1)C(=S)c1ccccn1` [Compound 6, N′-ethyl-2-(2-methyl-2-(phenylcarbonothioyl)hydrazinyl)-2-oxo-N′-(pyridine-2-carbonothioyl) ethanesulfonohydrazide] reads 25 nM.

In turn, `CN(NC(=O)CS(=O)(=O)NN(C)C(=S)c1cnccn1)C(=S)c1ccccc1` [Compound 9, N′-methyl-2-(2-methyl-2-(phenylcarbonothioyl)hydrazinyl)-2-oxo-N′-(pyrazine-2-carbonothioyl)-ethanesulfonohydrazide] came in with an EC50 of 971 nM. Under `CN(NC(=O)CS(=O)(=O)NN(C)C(=S)c1cccnc1)C(=S)c1ccccc1` [Compound 10, N′-methyl-2-(2-methyl-2-(phenylcarbonothioyl)hydrazinyl)-2-oxo-N′-(pyridine-3-carbonothioyl)-ethanesulfonohydrazide] stands 180 nM; under `CN(NC(=O)CS(=O)(=O)NN(C)C(=S)c1ccccc1)C(=S)c1ccncc1` [Compound 11, N′-methyl-2-(2-methyl-2-(pyridine-4-carbonothioyl)hydrazinyl)-2-oxo-N′-(phenylcarbonothioyl)ethane-sulfonohydrazide], 1030 nM; under `CN(NC(=O)CS(=O)(=O)NN(C)C(=S)c1ccccc1)C(=S)c1cccnc1` [Compound 13, N′-methyl-2-(2-methyl-2-(pyridine-3-carbonothioyl)hydrazinyl)-2-oxo-N′-(phenylcarbonothioyl)ethane-sulfonohydrazide], 202 nM.

The compound `CN(NC(=O)CS(=O)(=O)NN(C)C(=S)c1ccoc1)C(=S)c1ccoc1` [Compound 17, N′-(furan-3-carbonothioyl)-2-(2-(furan-3-carbonothioyl)-2-methylhydrazinyl)-N′-methyl-2-oxoethanesulfonohydrazide] showed an EC50 of 127 nM.

For the compound `CN(NC(=O)CS(=O)(=O)NN(C)C(=S)c1ccco1)C(=S)c1ccco1` [Compound 18, N′-(furan-2-carbonothioyl)-2-(2-(furan-2-carbonothioyl)-2-methylhydrazinyl)-N′-methyl-2-oxoethanesulfonohydrazide], a half-maximal effect (EC50) was put at 15 nM. Under `CCN(CC)C(=S)N(C)NC(=O)CS(=O)(=O)NN(C)C(=S)N(CC)CC` [Compound 20, 2-(2-(2-(diethylcarbamothioyl)-2-methylhydrazinyl)-2-oxoethylsulfonyl)-N,N′-diethyl-1-methylhydrazinecarbothioamide] stands 85 nM; under `CN(NC(=O)CS(=O)(=O)NN(C)C(=S)C1CC1)C(=S)C1CC1` [Compound 28, N′-(cyclopropanecarbonothioyl)-2-(2-(cyclopropanecarbonothioyl)-2-methylhydrazinyl)-N′-methyl-2-oxoethanesulfonohydrazide], 98 nM; under `CCN(NC(=O)CS(=O)(=O)NN(CC)C(=S)C1CC1)C(=S)C1CC1` [Compound 29, N′-(cyclopropanecarbonothioyl)-2-(2-(cyclopropanecarbonothioyl)-2-ethylhydrazinyl)-N′-ethyl-2-oxoethanesulfonohydrazide], 146 nM.

`CCN(NC(=O)CS(=O)(=O)NN(CC)C(=S)C1(C)CC1)C(=S)C1(C)CC1` [Compound 30, N′-ethyl-2-(2-ethyl-2-(1-methylcyclopropanecarbonothioyl) hydrazinyl)-N′-(1-methylcyclopropanecarbonothioyl)-2-oxoethanesulfonohydrazide] yielded a half-maximal effective concentration (EC50) of 49 nM. Under `CCN(CC)C(=S)N(C)NS(=O)(=O)CC(=O)NN(C)C(=S)C1CC1` [Compound 31, 2-(2-(2-(cyclopropanecarbonothioyl)-2-methylhydrazinyl)-2-oxoethylsulfonyl)-N,N′-diethyl-1-methylhydrazinecarbothioamide] stands 174 nM. Under `CN(NC(=O)CS(=O)(=O)NN(C)C(=S)C1CCC1)C(=S)C1CCC1` [Compound 32, N′-(cyclobutanecarbonothioyl)-2-(2-(cyclobutanecarbonothioyl)-2-methylhydrazinyl)-N′-methyl-2-oxoethanesulfonohydrazide] stands 958 nM; under `CCOC(=S)N(C)NS(=O)(=O)CC(=O)NN(C)C(=S)C1CC1` [Compound 33, O-ethyl 2-(2-(2-(cyclopropanecarbonothioyl)-2-methylhydrazinyl)-2-oxoethylsulfonyl)-1-methylhydrazinecarbothioate], 143 nM; under `CCN(NS(=O)(=O)CC(=O)NN(C)C(=S)C1CC1)C(=S)c1cnccn1` [Compound 35, 2-(2-(cyclopropanecarbonothioyl)-2-methylhydrazinyl)-N′-ethyl-2-oxo-N′-(pyrazine-2-carbonothioyl)-ethanesulfonohydrazide], 1020 nM. The result for `CN(NS(=O)(=O)CC(=O)NN(C)C(=S)C1CC1)C(=S)c1ccccc1` [Compound 36, 2-(2-(cyclopropanecarbonothioyl)-2-methylhydrazinyl)-N′-methyl-2-oxo-N′-(phenylcarbonothioyl)ethane-sulfonohydrazide] reads 76 nM; that for `CN(NC(=O)CS(=O)(=O)NN(C)C(=S)C1CC1)C(=S)c1ccccc1` [Compound 39, N′-(cyclopropanecarbonothioyl)-N′-methyl-2-(2-methyl-2-(phenylcarbonothioyl)hydrazinyl)-2-oxoethanesulfonohydrazide], 22 nM. On to `CN(NS(=O)(=O)CC(=O)NN(C)C(=S)C1CCC1)C(=S)c1ccccc1` [Compound 40, 2-(2-(cyclobutanecarbonothioyl)-2-methylhydrazinyl)-N′-methyl-2-oxo-N′-(phenylcarbonothioyl)ethane-sulfonohydrazide], for which the EC50 was found to be 1120 nM. Under `CN(NC(=O)CS(=O)(=O)NN(C)C(=S)c1ccc2c(c1)OCO2)C(=S)c1ccccc1` [Compound 42, N′-(benzo[d][1,3]dioxole-5-carbonothioyl)-N′-methyl-2-(2-methyl-2-(phenylcarbonothioyl)hydrazinyl)-2-oxoethanesulfonohydrazide] stands 56 nM; under `CN(NC(=O)CS(=O)(=O)NN(C)C(=S)c1ccc(N2CCOCC2)cc1)C(=S)c1ccccc1` [Compound 43, N′-methyl-2-(2-methyl-2-(phenylcarbonothioyl)hydrazinyl)-N′-(4-morpholinophenylcarbonothioyl)-2-oxoethanesulfonohydrazide], 74 nM; under `CSC(=S)N(C)NS(=O)(=O)CC(=O)NN(C)C(=S)c1ccccc1` [Compound 44, methyl 1-methyl-2-(2-(2-methyl-2-(phenylcarbonothioyl)hydrazinyl)-2-oxoethylsulfonyl) hydrazinecarbodithioate], 228 nM.

Regarding `CCN(NS(=O)(=O)CC(=O)NN(C)C(=S)c1ccccc1)C(=S)N1CCOCC1` [Compound 50, N′-ethyl-2-(2-methyl-2-(phenylcarbonothioyl)hydrazinyl)-N′-(morpholine-4-carbonothioyl)-2-oxoethanesulfonohydrazide], it took 114 nM to reach a half-maximal effect (EC50).

`CN(NC(=O)CS(=O)(=O)NN(C)C(=S)N1CCCC1)C(=S)c1ccccc1` [Compound 51, N′-methyl-2-(2-methyl-2-(phenylcarbonothioyl)hydrazinyl)-2-oxo-N′-(pyrrolidine-1-carbonothioyl)-ethanesulfonohydrazide] came in with a concentration giving a half-maximal response (EC50) of 57 nM. On to `CN(NC(=O)CS(=O)(=O)NN(C)C(=S)N1CCCCC1)C(=S)c1ccccc1` [Compound 52, N′-methyl-2-(2-methyl-2-(phenylcarbonothioyl)hydrazinyl)-2-oxo-N′-(piperidine-1-carbonothioyl)-ethanesulfonohydrazide], for which the concentration giving a half-maximal response (EC50) amounted to 87 nM. This EC50 lies about 1.5-fold higher than the previous one.

Regarding `CN(NS(=O)(=O)CC(=O)NN(C)C(=S)N1CCCC1)C(=S)c1ccccc1` [Compound 53, N′-methyl-2-(2-methyl-2-(pyrrolidine-1-carbonothioyl)hydrazinyl)-2-oxo-N′-(phenylcarbonothioyl)ethane-sulfonohydrazide], the concentration giving a half-maximal response (EC50) is 102 nM. The EC50 values of the last two compounds are within 1.5-fold of each other.
